Data set [1] has as its system advanced and relapsing ovarian tumor. Description: high-dose cis-platinum+GSH in a patient with advanced and relapsing ovarian tumor (Example 3A). It is filed as in vivo, human. As to conditions: in combination with glutathione. The procedure:
However, in the therapeutical practice, the treatment is usually interrupted after 2 or 3 cycles (400 mg/m^2 or 600 mg/m^2) because of the onset of serious side-effects, which can even be fatal.
A patient having an advanced and relapsing ovarian tumor previously treated with cis-platinum, was treated with a combination of cis-platinum+GSH every four weeks. Cis-platinum was administered at a weekly dosage of 200 mg/m^2 (40 mg/m^2 i.v. in normal saline at 1-5 days) for five weeks; GSH was administered i.v. at a dosage of 35 mg/ mg of cis-platinum in normal saline, 30 minutes before administration of cis-platinum. The week of administration (5 administrations) was followed by three weeks of rest, and then the cycle was repeated, and so on, for a total of 5 cycles of administration extending over 17 weeks (5 weeks of actual treatment and 12 weeks (3 weeks X 4) of rest intervals).

The test system is the same in data set [2]. As to conditions: administered without glutathione; severe side-effects; cited from earlier work.
Data set [3] concerns anthracycline (doxorubicin) induced myocardiotoxicity. Description: Protective effect of glutathione on doxorubicin induced myocardiotoxicity in rats. In kind it is in vivo, Sprague Dawley rats. As to conditions: doxorubicin 3 mg/kg i.v. and/or GSH i.v. 30 minutes before, every 7 days, 4 times; 8 weeks. The method, then: Twenty-four Sprague Dawley rats, weighing 150-200 g, fed with standard diet and water "ad libitum", were randomized in 4 groups (A,B,C,D) 6 animals each.
Six animals were treated i.v. in the morning (10 am.) with […]) dissolved in normal saline (total injected volume 1 ml/kg). After 30 minutes, the same animals were treated i.v. with doxorubicin (3 mg/kg) dissolved in normal saline (total injected volume 1 ml/kg).
The treatment has been then repeated after 7 days, for 4 consecutive times as a whole.
Six animals were treated similarly to group A, except that glutathione was omitted and substituted with normal saline only.
Six animals were treated similarly to group A, except that doxorubicin was substituted with normal saline only.
Six animals were treated similarly to group A except that both drugs were substituted with normal saline.
The day of the first administration was defined "zero day" and all the animals were killed after 8 weeks from the start of the experiment.
During the experiment, starting from the zero time, all the animals were evaluated weekly for body weight increase, electrocardiographic intervals Q-T and S-T.
After the 8-week experiment, the necroscopic examination allowed to evaluate for each animal the degree of myocardial lesions expressed as an average of vacuolate cells for 10 observation fields at the optical microscope (200 x).

In data set [4] the test system is P388 leukemia. It is filed as in vivo. The method, then: In the Table 1, the results obtained in CD2F1 mice i.p. treated at the day 0 with […] P388 leukemia cells and treated. i.p. at the day 1 with doxorubicin (DX) (7.5 mg/kg) and/or with GSH (333 mg/mg doxorubicin) are reported.
The GSH was administered 30 min. before DX.
The experiment of the combination GSH+DX was repeated in 2 groups of animals.
TMS means mean survival time in days, T/C % is a percent value of the response of drug treated animals in comparison with the control, taken as 100.
TOX means the number of treated animals died before the control animals. LTS is the number of animals survived at long term (2 months at least).
It should be stressed that the test used an experimental model, the P388 leukemia, characterized by an exclusively intraperitoneal tumor growth, i.e. a growth in the cavity wherein the insulation of the tumoral cells has been carried out.

In data set [5] the test system is P388 leukemia. The data set is described as follows: Effect of GSH (i.v.) at different doxorubicin dosages (i.p.) on P388 leukemia in mice (Table 2). It is filed as in vivo. As to conditions: for LTS >60 days / T/C % / TOX: in combination GSH 1500 mg/kg i.v.; for TMS: in combination GSH 1500 mg/kg i.v. 30' before. The method, then:
The experimental conditions are similar to that of the previous test.
In these tests, the glutathione has been administered i.v., 30' before of the optional i.p. administration of anthracycline, doxorubicin.
The GSH treated animals received an equal amount of drug (1500 mg/kg) whereas the doxorubicin treated animals received i.p. scalar amounts of anthracycline. The animals consecutively treated with GSH and DX received the two drugs in the ratios of 100, 125, 150 and 200 mg of GSH per mg of DX.

Data set [6] relates to P388 leukemia. The data set is described as follows: GSH and Doxorubicin effect on P388 leukemia in CD2F1 mice (Table 3). As to conditions: GSH 375 mg/kg i.v. and/or DX 7,5 mg/kg i.p. (GSH/DX 50). In kind it is in vivo. The method, then: (§1) The experiments were carried out in a similar way to the experimental scheme of the previous tests 2 and 3. The glutathione was administered i.v. 30, before of doxorubicin. In the tests, whose experimental data are reported in the Tables 3 and 4, the doxorubicin is administered i.p. at a sub-optimal dose level (for the used treatment schedule), in order to evidentiate the synergic effect of the glutathione treatment.
In the test of Table 3 wherein P388 leukemic cells were inoculated, variable dosages of glutathione were used, with respect to the fixed dose of DX (7.5 mg/kg) so as to provide GSH/DX ratios respectively of 20 and 50 mg of GSH per mg of DX.

For data set [7], the system named is P388/DX resistant leukemic cells. The data set is described as follows: Effect of GSH and doxorubicin on DX-resistant P388/DX leukemia in CD2F1 mice (Table 4). In kind it is in vivo. The method, then: as §1
In the case of inoculation of P388/DX resistant leukemic cells an intermediate dose of glutathione was administered, corresponding to GSH/DX ratio of 25 mg/mg (total dose of GSH 187.5).

The test system of data set [8] is P388 leukemia. The data set is described as follows: Effect of GSH (i.v.) at different doxorubicin dosages (i.p.) on P388 leukemia in mice (Table 2). In kind it is in vivo. As to conditions: DX 12,5 mg/kg i.p.
Data set [9] concerns human HT-29 cells (colon carcinoma). The data set is described as follows: In vitro activity of GSH and methotrexate on human HT-29 cells. In kind it is cell-based. As to conditions: MTX 24 h, read-out: concentration causing 50% of cell death. The procedure: (5) In vitro activity of GSH and methotrexate (MTX) on human HT-29 cells (colon carcinoma). Human HT-29 cells (colon carcinoma) were used; the cells were pre-treated with GSH at the concentrations of 20 and 40 mg/ml and then exposed to MTX at the concentrations of 0.05, 0.1, 0.5 and 1 mg/ml for 24 h. The concentrations causing 50% of cell death turned out to be 0.12 mg/ml in the absence of GSH and about 0.04-0.06 mg/ml in the presence of GSH. The cells were cultivated in RPMI 1640 medium+10% of fetal calf serum.

Where [10] appears, read: day 1 i.p.: DX 7.5 mg/kg and/or GSH 333 mg/mg doxorubicin.
The mark [11] stands for this setting: GSH 187,5 mg/kg i.v. and/or DX 7,5 mg/kg i.p.
The mark [12] stands for this setting: in combination GSH 1500 mg/kg i.v.

SMILES strings stand for the structures. In brackets after ≈: the same amount, converted by molar mass. Where two headings read alike, the source gives them in different places.

As for `N.N.[Cl][Pt][Cl]` [CDDP, cis-diamine-dichloroplatinum], the “maximum applicable dosage of cis-platinum” value in data set [1] is listed as “about 1000 mg/m^2”. Further, the “maximum dosage of cis-platinum” value in [2] is on record as 400-600 mg/m^2.
Regarding `COc1cccc2c1C(=O)c1c(O)c3c(c(O)c1C2=O)C[C@@](O)(C(=O)CO)C[C@@H]3O[C@H]1C[C@H](N)[C@H](O)[C@H](C)O1` [DX, doxorubicin], in [3], the “body growth curve, ECG recording (Q-T, S-T), number of vacuolate myocardial cells” value is “toxic and cardiological effects”. For the same compound, the “LTS (number of animals survived at long term, 2 months at least)” value in the data set with P388 leukemia [4] (setting [10]) was 0/10. The T/C % with P388 leukemia [4] (setting [10]) is listed as 140%; in the data set on P388 leukemia [5] (DX 10 mg/kg i.p.), 170%; in the data set on P388 leukemia [5] (DX 15 mg/kg i.p.) it was 60%; in the data set with P388 leukemia [5] (DX 7,5 mg/kg i.p.) it was 155%; with P388 leukemia [6], 163%; in [7] (setting [11]), 118%. For the same compound, in the data set on P388 leukemia [8] (setting [12]), the T/C % was 120%. Besides, the “TOX (number of treated animals died before the control animals)” value in the data set with P388 leukemia [4] (setting [10]) is recorded as 0/10. For the same compound, the “TMS (mean survival time)” value in the data set on P388 leukemia [4] (day 1 i.p.: DX 7.5 mg/kg and/or GSH 333 mg/mg doxorubicin 30 min. before DX) was found to be 16 days. For the same compound, the “LTS >60 days” value in the data set with P388 leukemia [5] (DX 10 mg/kg i.p.), in the data set with P388 leukemia [5] (DX 15 mg/kg i.p.), with P388 leukemia [5] (DX 7,5 mg/kg i.p.) and in the data set on P388 leukemia [5] (DX 12,5 mg/kg i.p.) was 0/8 each time. Further, the TOX in the data set with P388 leukemia [5] (DX 10 mg/kg i.p.) is listed as 0/8; in the data set on P388 leukemia [5] (DX 15 mg/kg i.p.) it was 8/8; in the data set with P388 leukemia [5] (DX 7,5 mg/kg i.p.), 0/8; in the data set on P388 leukemia [6], 0/10; in [7] (setting [11]), 0/10; in the data set with P388 leukemia [8] (setting [12]), 4/8. Also, the TMS with P388 leukemia [5] (DX 10 mg/kg i.p.) is listed as 17 days; in the data set with P388 leukemia [5] (DX 15 mg/kg i.p.), 6 days; in the data set on P388 leukemia [5] (DX 7,5 mg/kg i.p.) it was 15,5 days; in the data set on P388 leukemia [6] it was 16,7 days; in [7] (GSH 187,5 mg/kg i.v. and/or DX 7,5 mg/kg i.p. (GSH/DX 25 mg/mg)), 11,4 days; with P388 leukemia [8] (in combination GSH 1500 mg/kg i.v. 30' before) it was 12 days. The LTS (with P388 leukemia [6]; in data set [7] (setting [11])) was 0/10 throughout.
Turning to `CN(Cc1cnc2nc(N)nc(N)c2n1)c1ccc(C(=O)N[C@@H](CCC(=O)O)C(=O)O)cc1` [MTX, methotrexate], the IC50 in data set [9] (in the absence of GSH) is 120 µg/mL (≈ 264 µM); in [9] (in the presence of GSH (pre-treated at 20 and 40 mg/ml)), 40 to 60 µg/mL.

The values are drawn from patent US4871528A, “Pharmaceutical compositions having antineoplastic activity” (Boehringer Biochemia Robin SpA, priority 1986, dated 1989).
